Assays:
[1] = system: OVX-induced osteoporosis mouse model; assay: OVX-induced osteoporosis mouse model (micro-CT, body weight); format: in vivo, C57BL/6 female mice; settings: for prevention of bone loss (Tb.Th and BMD values, micro-CT of femur): 20 mg/kg intraperitoneally once daily for 4 weeks after surgery, compared with the OVX group
Procedure: Specific pathogen-free facilities were used to grow mice. To investigate the effects of 25-KR-03 in vivo, the inventors established an OVX-induced osteoporosis mouse model as previously described. Seven-week-old C57BL/6 female mice were divided into four groups (Sham, OVX, 25-KR-03, and PMSA-3-Ac). Among them, the OVX, 25-KR-03, and PMSA-3-Ac groups underwent OVX surgery.
After a 1-week recovery period, mice were intraperitoneally injected with 25-KR-03 or PMSA-3-Ac (20 mg/kg, dissolved in a mixture of 10 % Tween 80 and 10% DMSO) once daily for 4 weeks. The sham and control (OVX) groups received equal volumes of the mixture of 10 % Tween 80 and 10% DMSO once daily for 4 weeks. Body weights of the mice were measured weekly. When the mice were euthanized, the femurs were isolated and fixed in 4.0% paraformaldehyde for micro-computed tomography (micro-CT) analysis as previously performed.
Micro-CT scanning was performed as in previous studies. The Quantum GX Micro-CT imaging system (PerkinElmer, Hopkinton, MA, USA) was used at the Korea Basic Science Institute (Gwangju, Korea).

[2] = system: RANKL-induced BMM; assay: In vitro osteoclast formation assay (TRAP staining / TRAP activity); format: cell-based, C57/BL6 mice; parameters: key to Inhibition rate (%): "Inactive" indicates that the % inhibition is less than 30%; settings: for inhibition at 2 µM / Inhibition rate (%) / inhibition at 1 µM: osteoclast differentiation in RANKL-induced BMM, mean ± SD from at least three experiments; for inhibition at 2 µM / inhibition at 1 µM: read-out: Inhibition rate (%); for inhibitory effects on osteoclast formation: SAR summary in words of Table 2 (2 µM)
Procedure: (§1) Bone marrow cells (BMC) were obtained from 8-week-old female C57/BL6 mice by washing femurs and tibias with α-MEM. BMCs were then cultured overnight in full α-MEM containing 10% FBS, 100 U/mL penicillin, and 100 µg/mL streptomycin. Non-attached cells were collected and cultured with M-CSF (30 ng/ mL) for 3 days, and then the attached cells were used as BMM. All animal experiments were approved by Chonnam National University IACUC (approval number: CNU IACUC-YB-2019-49).
(§2) To generate osteoclasts, BMMs were harvested and cultured in a complete medium containing 30 ng/mL M-CSF and 50 ng/mL RANKL with or without compounds for approximately 4 days to obtain mature osteoclasts. Differentiated osteoclasts were fixed with 4% formalin for 15 minutes, and then the cells were stained using a TRAP staining kit. The spread of osteoclast areas could be observed under the microscope. The viability of BMM (1 × 10^4 cells/well) was assessed in a 96-well plate using a cell viability assay kit as previously described.

[3] = system: F-actin belts of mature osteoclasts; assay: F-actin ring immunofluorescence analysis (phalloidin staining); format: cell-based, C57/BL6 mice
Procedure: (§3) Bone resorption analysis was performed by a conventional method. Briefly, BMMs (2 × 10^4 cells/well) were seeded into a coated 48-well plate provided in the kit. After culturing with or without the indicated doses of 25-KR-03 and PMSA-3-Ac until mature osteoclasts were observed, 100 µL supernatant was harvested from each well and placed in a black polypropylene 96-well microplate. Fluorescence intensity was measured using a SpectraMax i3x fluorescence plate reader (excitation wavelength 485 nm; emission wavelength 535 nm). The decalcified pit area was visible under a microscope and calculated using ImageJ software. F-actin rings were visible using a rhodamine-coupled phalloidin staining assay (Thermo Fisher Scientific) as previously described.
(§4) In FIG. 4C, the fluorescence intensity of each group after 6 days was measured at excitation and emission wavelengths of 485 nm and 535 nm, respectively. All experiments were repeated three times.

[4] = system: osteoclast bone resorption; assay: Bone resorption analysis on fluoresceine amine-labeled calcium phosphate plates; format: cell-based, C57/BL6 mice
Procedure: as §3, §4

[5] = system: BMDMs; assay: Cell viability assay of BMM/BMDMs; format: cell-based, C57/BL6 mice; settings: below 4 µM; 48 hours
Procedure: as §1, §2

[6] = system: human IPSC-derived macrophages; assay: Human osteoclast differentiation model (TRAP staining / TRAP activity); format: cell-based; settings: 10 days; 50 ng/mL hM-CSF and 100 ng/mL hRANKL
Procedure: However, it is unclear whether 25-KR-03 has an inhibitory effect on human osteoclast differentiation. Accordingly, a human osteoclast differentiation model was established using human IPSC-derived macrophages. Cells were incubated with 50 ng/mL human M-CSF and 100 ng/mL RANKL to induce mature osteoclast formation.
Specifically, in FIG. 7A, the inhibitory effect of 25-KR-03 on human osteoclast differentiation was analyzed through TRAP staining. Human IPSC-derived macrophages were treated with the indicated concentrations of 25-KR-03 for 10 days in the induction medium containing 50 ng/mL hM-CSF and 100 ng/mL hRANKL. After the formation of multinucleated osteoclasts, TRAP staining was performed to visualize the formed osteoclasts.

[7] = system: osteoclast-specific genes; assay: Quantitative real-time PCR of osteoclast-specific genes; format: cell-based, C57/BL6 mice; settings: Acp5, NFATc1, DC-STAMP, ATP6V0d2, MMP9 and Ctsk; 0, 1, 2, and 4 days
Text: Total RNA from BMM was isolated using QIAzol RNA lysis reagent (Qiagen Sciences, Valencia, CA, USA).
Specifically, FIGS. 5A to 5F show the results of measuring the relative mRNA levels of the indicated osteoclast-specific genes using qRT-PCR with or without 25-KR-03 treatment for 0, 1, 2, and 4 days. Black bars represent M-CSF and RANKL treatment groups ("Con") and gray bars correspond to 25-KR-03 treatment groups. Transcript levels were normalized to expression at day 0. All experiments were repeated three times.

[8] = system: NFATc1; assay: Western blotting analysis of osteoclast proteins and NFATc1 nuclear translocation; format: cell-based, C57/BL6 mice
Procedure: Total protein was extracted from osteoclasts and processed by a conventional method. To obtain total cell lysates, cells were lysed in ice-cold RIPA buffer for 30 min. After measuring the total protein concentration using the Enhanced BCA Protein Assay Kit, the protein was separated using 8-12% SDS-PAGE and transferred to a polyvinylidene fluoride membrane. Next, the membrane was blocked using 5% skim milk and incubated with a primary antibody (1:2,000 dilution) overnight. After incubation with a secondary antibody (1:2,000 dilution) for 1 hour, the membrane was washed and developed using an enhanced chemiluminescence (ECL) buffer as previously described. Relative protein expression was calculated by densitometric analysis using Image J software.
Specifically, in FIG. 6A, immunoblotting was performed for analysis. Culture was performed with or without 25-KR-03 for the indicated days in induction medium. […] GAPDH/LaminB1 was used as a loading control.

CC(=O)c1cccc(N(CC(=O)Nc2ccccc2Sc2ccccc2)S(C)(=O)=O)c1 [PMSA-3-Ac, reference compound]
prevention of bone loss (Tb.Th and BMD values, micro-CT of femur) [1]: no significant effect

CS(=O)(=O)N(CC(=O)Nc1ccccc1Sc1ccccc1)c1cccc(C(=O)Oc2ccc(Cl)cc2)c1 [Compound 25-KR-10, 4-Chlorophenyl 3-(N-(2-oxo-2-((2-(phenylthio)phenyl)amino)ethyl)methylsulfonamido)benzoate]
inhibition at 2 µM ([2]; Mus musculus, 2 µM): 47.4 ± 9.79% | inhibitory effects on osteoclast formation [2]: moderate inhibitory effects

CS(=O)(=O)N(CC(=O)Nc1ccccc1Sc1ccccc1)c1cccc(C(=O)Oc2cccc([N+](=O)[O-])c2)c1 [Compound 25-KR-12, 3-Nitrophenyl 3-(N-(2-oxo-2-((2-(phenylthio)phenyl)amino)ethyl)methylsulfonamido)benzoate]
Inhibition rate (%) ([2]; 2 µM): Inactive ^c

COC(=O)c1cccc(NCC(=O)Nc2ccccc2Sc2ccccc2)c1 [Compound 25-KR-03, Methyl 3-((2-oxo-2-((2-(phenylthio)phenyl)amino)ethyl)amino)benzoate]
actin ring formation ([3]; at the indicated doses, RANKL/M-CSF-induced): inhibited | osteoclast F-actin belt formation, inhibition compared with control inhibitor ([3]; versus PMSA-3-Ac (10 µM)): more strongly than PMSA-3-Ac | resorption pit area ([4]; 0.5, 1, and 2 µM, M-CSF and RANKL, 6 days): significantly reduced | fluorescence intensity ([4]; dose-dependent manner, 6 days, excitation 485 nm, emission 535 nm): reduced | bone resorption inhibition compared with control inhibitor ([4]; versus PMSA-3-Ac): more effective than PMSA-3-Ac | cell viability of BMDMs [5]: no significant effect | inhibitory effect on human osteoclast differentiation [6]: has bioactivity in both mouse and human cells | relative mRNA expression levels of RANKL-induced osteoclastogenesis-related genes [7]: obviously decreased | NFATc1 protein levels in the nucleus ([8]; BMDMs, 48 hours): significantly reduced | NFATc1 protein levels in the cytoplasm ([8]; BMDMs, 48 hours, not significant): slightly increased | protein expression of Ctsk ([8]; Western blotting): significantly inhibited | protein expression of NFATc1, Traf6, c-src, GSK3β and calcineurin A ([8]; Western blotting, compared to the control group): no significant effect | prevention of bone loss (Tb.Th and BMD values, micro-CT of femur) [1]: slight but significant prevention of bone loss | body weight ([1]; 20 mg/kg intraperitoneally once daily, 4 weeks): no significant weight reduction | inhibitory effect on osteoclast differentiation ([2]; 2 µM, TRAP staining): almost complete inhibition | inhibition at 1 µM ([2]; Mus musculus, 1 µM): 72.3 ± 6.33% | inhibition at 2 µM ([2]; Mus musculus, 2 µM): 99.89 ± 0.04% | IC50 ([2]; Mus musculus, Differentiation of BMDM, based on TRAP activity, 0 to 4000 nM): 0.323 µM | formation of multinucleated mature osteoclasts ([2]; RANKL-induced, concentration range up to 4000 nM): completely blocked

COC(=O)c1cccc(N(CC(=O)Nc2ccccc2Sc2ccccc2)S(=O)(=O)c2ccc(C)cc2)c1 [Compound 25-KR-26, Methyl 3-((4-methyl-N-(2-oxo-2-((2-(phenylthio)phenyl)amino)ethyl)phenyl)sulfonamido)benzoate]
Inhibition rate (%) ([2]; 1 µM): 49.09 ± 2.32%

O=C(CNc1cccc(O)c1)Nc1ccccc1Sc1ccccc1 [Compound 25-KR-19, 2-((3-Hydroxyphenyl)amino)-N-(2-(phenylthio)phenyl)acetamide]
Inhibition rate (%) ([2]; 2 µM): Inactive ^c

CS(=O)(=O)N(CC(=O)Nc1ccccc1Sc1ccccc1)c1cccc(C(=O)Oc2ccccc2C#N)c1 [Compound 25-KR-11, 2-Cyanophenyl 3-(N-(2-oxo-2-((2-(phenylthio)phenyl)amino)ethyl)methylsulfonamido)benzoate]
Inhibition rate (%) ([2]; 2 µM): Inactive ^c

COc1ccccc1OC(=O)c1cccc(N(CC(=O)Nc2ccccc2Sc2ccccc2)S(C)(=O)=O)c1 [Compound 25-KR-08, 2-Methoxyphenyl 3-(N-(2-oxo-2-((2-(phenylthio)phenyl)amino)ethyl)methylsulfonamido)benzoate]
inhibition at 2 µM ([2]; Mus musculus, 2 µM): 37.6 ± 8.21% | inhibitory effects on osteoclast formation [2]: moderate inhibitory effects

CC(C)(C)[Si](C)(C)Oc1cccc(N(CC(=O)Nc2ccccc2Sc2ccccc2)S(C)(=O)=O)c1 [Compound 25-KR-16, 2-(N-(3-((tert-butyldimethylsilyl)oxy)phenyl)methylsulfonamido)-N-(2-(phenylthio)phenyl)acetamide]
Inhibition rate (%) ([2]; 2 µM): Inactive ^c

O=C(CNc1cccc(C(=O)O)c1)Nc1ccccc1Sc1ccccc1 [Compound 25-KR-27, 3-((2-oxo-2-((2-(phenylthio)phenyl)amino)ethyl)amino)benzoic acid]
inhibition at 1 µM ([2]; Mus musculus, 1 µM): 31.8 ± 1.93%

COc1ccccc1OC(=O)c1cccc(NCC(=O)Nc2ccccc2Sc2ccccc2)c1 [Compound 25-KR-20, 2-Methoxyphenyl 3-((2-oxo-2-((2-(phenylthio)phenyl)amino)ethyl)amino) benzoate]
Inhibition rate (%) ([2]; 1 µM): 52.27±1.11%

COc1ccc(OC(=O)c2cccc(N(CC(=O)Nc3ccccc3Sc3ccccc3)S(C)(=O)=O)c2)cc1 [Compound 25-KR-09, 4-Methoxyphenyl 3-(N-(2-oxo-2-((2-(phenylthio)phenyl)amino)ethyl)methylsulfonamido)benzoate]
inhibition at 2 µM ([2]; Mus musculus, 2 µM): 45.8 ± 3.65% | inhibitory effects on osteoclast formation [2]: moderate inhibitory effects

Cc1cccc(OC(=O)c2cccc(N(CC(=O)Nc3ccccc3Sc3ccccc3)S(C)(=O)=O)c2)c1 [Compound 25-KR-06, m -Tolyl 3-(N-(2-oxo-2-((2-(phenylthio)phenyl)amino)ethyl)methylsulfonamido)benzoate]
Inhibition rate (%) ([2]; 2 µM): Inactive ^c

CS(=O)(=O)N(CC(=O)Nc1ccccc1Sc1ccccc1)c1cccc(C(=O)O)c1 [Compound 25-KR-02, 3-(N-(2-oxo-2-((2-(phenylthio)phenyl)amino)ethyl)methylsulfonamido)benzoic acid]
Inhibition rate (%) ([2]; 2 µM): Inactive ^c

COc1ccc(OC(=O)c2cccc(NCC(=O)Nc3ccccc3Sc3ccccc3)c2)cc1 [Compound 25-KR-21, 4-Methoxyphenyl 3-((2-oxo-2-((2-(phenylthio)phenyl)amino)ethyl)amino) benzoate]
Inhibition rate (%) ([2]; 1 µM): 50.91 ± 1.93%
